The record followed here is article PMC8036666, “Biological and Physico-Chemical Characteristics of Arginine-Rich Peptide Gemini Surfactants with Lysine and Cystine Spacers” (International Journal of Molecular Sciences, 2021).

The structures appear in SMILES notation.

A short description of the series: in vitro. Conditions: human, 25% (v/v) normal human serum. On the procedure: Serum stability of peptides B7 and C7 was tested in normal human serum (Sigma-Aldrich, Steinheim, Germany) according to the modified Jenssen and Aspmo protocol. Briefly, compounds were incubated in 25% (v/v) human serum solution in RPMI-1640 (Sigma-Aldrich, Steinheim, Germany) at 37 ± 0.1 °C. The final compound concentration was 50 µg/mL. Time intervals were 0, 1, 2, 3, 4, and 5 h. To precipitate serum proteins, 100 µL of solution was added to 200 µL of 96% ethanol (Pure P.A., POCH, Avantor Performance Materials S.A, Gliwice, Poland) and incubated at 4 °C before centrifugation (4 °C, 18,000× g, 2 min; Sorvall ST 16R Centrifuge, Thermo Scientific, Osterode am Harz, Germany). Subsequently, 200 µL of supernatant was transferred to glass vials (1.5 mL, Anchem, Poland), and the liquid was evaporated under nitrogen at 37 °C (approximately 30 min). The vials were lyophilized for 24 h to remove traces of solvents.
The influence of serum matrix on calibration curves was eliminated by the preparation of a series of vials with residual substances from serum. Briefly, ethanol was added to serum solution to precipitate proteins. Subsequently, the precipitate was centrifuged, and the supernatant was collected and evaporated to dryness as described above. Standards of the analyzed compounds were prepared in demineralized water in concentration ranging from 1 to 15 ppm. Next, 333 µL of solutions were moved to vials containing residual matrix substances (blank, without surfactant). Similarly, samples obtained after serum stability experiments were dissolved in 333 µL of demineralized water and analyzed. Analyses were performed using UPLC-HRMS. The mobile phase contained deionized water (solvent A) and acetonitrile (solvent B; ACN for HPLC-gradient grade; POCH, Avantor, Gliwice, Poland) both supplemented with a 0.1% (v/v) formic acid (Sigma-Aldrich, Steinheim, Germany).
The quantification of lipopeptides was performed using an Agilent 1290 Infinity chromatograph and Agilent 6550 Quadrupole Time-of-flight (Q-TOF) high-resolution mass spectrometer (HRMS). Gradient LC analyses were conducted using a ZORBAX Eclipse Plus C18 column (Rapid Resolution HD, 2.1 × 50 mm, 1.8 µm) and mobile phases: A—water containing 0.3% of acetonitrile and B—acetonitrile, both with 0.1% (v/v) formic acid. […] The mass detector equipped with an ESI source in HRMS mode was set in scanning mode 100–1700 m/z range in positive ionization. Chromatograms for a desired m/z value were extracted, and calibration curves were prepared using Mass Hunter software. All standards and serum samples were subjected to LC-MS analysis, and all analyses were performed in triplicate. Calibration curves were prepared for chromatograms extracted for m/z values corresponding to mono-, di-, tri- and tetra-charged ions. For analysis of peptide C7, a pseudomolecular ion [M+H]^+ (m/z 1227.8017) was selected, while for the other peptide B7, triple charged ion [M+3H]^3+ (m/z 378.9606).

One may read the share remaining as what is left of the initial amount, in per cent. Read a low share remaining as more turnover. The compound `CCCCCCC(CCCC)C(=O)N[C@@H](CCCNC(=N)N)C(=O)N[C@@H](CCCNC(=N)N)C(=O)N[C@@H](CSSC[C@H](NC(=O)[C@H](CCCNC(=N)N)NC(=O)[C@H](CCCNC(=N)N)NC(=O)C(CCCC)CCCCCC)C(N)=O)C(N)=O` (stereo partly drawn) [Compound C7] returned an amount remaining at 0 h, 50 µg/mL of 100 ± 1.1%; a fraction remaining at 1 h, 50 µg/mL of 92.2 ± 2.1%; an amount remaining at 2 h, 50 µg/mL of 82.5 ± 1.3%; an amount remaining at 3 h, 50 µg/mL of 79.2 ± 1.6%. This compound showed a share remaining at 4 h, 50 µg/mL of 72.8 ± 3% and a fraction remaining at 5 h, 50 µg/mL of 59.4 ± 1%.
Compound `CCCCCCC(CCCC)C(=O)N[C@@H](CCCNC(=N)N)C(=O)N[C@@H](CCCNC(=N)N)C(=O)NCCCC[C@H](NC(=O)[C@H](CCCNC(=N)N)NC(=O)[C@H](CCCNC(=N)N)NC(=O)C(CCCC)CCCCCC)C(N)=O` (stereo partly drawn) [Compound B7] returned a share remaining at 0 h, 50 µg/mL of 100 ± 2.4%; an amount remaining at 1 h, 50 µg/mL of 94.3 ± 1.8%; an amount remaining at 2 h, 50 µg/mL of 87.3 ± 1.7%; an amount remaining at 3 h, 50 µg/mL of 83.1 ± 1.6%. For the same compound, the fraction remaining at 4 h, 50 µg/mL came out at 80.1 ± 1.2% and the share remaining at 5 h, 50 µg/mL stood at 63.2 ± 2.9%.
